Data reported in publication PMC3764026, “Adaptive Evolution of Escherichia coli to an α-Peptide/β-Peptoid Peptidomimetic Induces Stable Resistance” (PLoS ONE, 2013).

Test system: E. coli ATCC 25922
Assay: Growth rate in MHB supplemented with peptidomimetic 1, wild type
Assay type: cell-based, Escherichia coli
Settings: E. coli ATCC 25922 exposed to 1/16 or 1/32×wt MIC of peptidomimetic 1; p>0.05
Protocol: To evaluate whether resistance altered the physiology of the isolates, we determined the growth rate of all forty isolates from lineage 2, 4, 5 and 7 as well as of E. coli ATCC 25922 in unsupplemented MHB media. Additionally, we determined the growth rate of the four isolates 2-7, 4-4, 5-6 and 7-3, in MHB supplemented with peptidomimetic 1 at ½×wild type MIC or 1×wild type MIC (i.e. 4 and 8 µg/mL). […] Optical density readings were obtained at 570 nm at 10–12 minute increments on cultures grown at 37°C over 24 hours (unsupplemented MHB) or 72 hours (supplemented MHB) using the automated Bioscreen C system (Labsystems, Helsinki, Finland). Growth rates were found using linear regression on ln(initial CFU/mL) vs. detection time (i.e. the time until a 0.5 unit increase in absorbance was reached) for inoculum sizes ranging from 10^2–10^7 CFU/mL [58]. Data were analysed in GraphPad Prism version 4.03 using One-Way ANOVA followed by Dunnett’s Test to correct for multiple testing. Control groups were E. coli ATCC 25922 (in the absence of peptidomimetic) or E. coli ATCC 25922/isolates grown in unsupplemented media (in the presence of peptidomimetic). Significance levels were in all tests set at p<0.05. All experiments were performed in duplicate on at least two independent days.

CC(=O)N[C@@H](CCCCNC(=N)N)C(=O)N(CCC(=O)N[C@@H](CCCCNC(=N)N)C(=O)N(CCC(=O)N[C@@H](CCCCNC(=N)N)C(=O)N(CCC(=O)N[C@@H](CCCCNC(=N)N)C(=O)N(CCC(=O)N[C@@H](CCCCNC(=N)N)C(=O)N(CCC(=O)N[C@@H](CCCCNC(=N)N)C(=O)N(CCC(N)=O)[C@@H](C)c1ccccc1)[C@@H](C)c1ccccc1)[C@@H](C)c1ccccc1)[C@@H](C)c1ccccc1)[C@@H](C)c1ccccc1)[C@@H](C)c1ccccc1 [peptidomimetic 1]
growth rate: reduced growth rate was not seen
